Measurements taken from publication PMC8359193, “Summary of reference chemicals evaluated by the fish short‐term reproduction assay, OECD TG229, using Japanese Medaka, Oryzias latipes” (Journal of Applied Toxicology, 2021).
Entries after “also recorded” stand apart in the source; their conditions may differ. Like-named read-outs stand apart in the source and are kept apart here.

How the values were obtained:
medaka Esr1 (mEsr1) = molecular target: T1, medaka Esr1 (mEsr1) (Oryzias latipes, UniProt P50241); assay: cell-based; type: cell-based, Japanese medaka (Oryzias latipes)
T1 construct: expressed in transfected cells; host or cells: HEK293 (human embryonic kidney cells), transient transfection with FuGENE HD
T1 sequence (P50241 1-620): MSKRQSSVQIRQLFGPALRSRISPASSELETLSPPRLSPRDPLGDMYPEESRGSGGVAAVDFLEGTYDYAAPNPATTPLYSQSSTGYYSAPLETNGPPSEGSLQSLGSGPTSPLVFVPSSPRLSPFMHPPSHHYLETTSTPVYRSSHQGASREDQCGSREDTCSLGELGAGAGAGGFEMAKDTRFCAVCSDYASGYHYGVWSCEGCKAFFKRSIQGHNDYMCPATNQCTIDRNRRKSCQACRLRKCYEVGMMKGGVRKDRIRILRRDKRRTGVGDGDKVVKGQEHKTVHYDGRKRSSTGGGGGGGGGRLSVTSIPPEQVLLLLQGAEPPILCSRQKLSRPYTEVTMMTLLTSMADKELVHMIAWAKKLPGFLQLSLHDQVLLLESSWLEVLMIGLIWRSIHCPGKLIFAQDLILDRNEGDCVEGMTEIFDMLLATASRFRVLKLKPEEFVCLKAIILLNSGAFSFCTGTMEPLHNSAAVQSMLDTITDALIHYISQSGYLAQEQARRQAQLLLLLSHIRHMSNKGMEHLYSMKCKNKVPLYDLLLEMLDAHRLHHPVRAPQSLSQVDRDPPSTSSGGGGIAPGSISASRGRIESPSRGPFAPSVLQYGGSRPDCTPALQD
Experimental: (§1) To support interpretation of the biological effects observed in the FSTRA studies, in vitro RGAs using medaka Esr1 (mEsr1) and medaka ARβ (mARβ) were performed for the 16 test chemicals. In the present study, Esr1 and ARβ, which are ancestral subtypes among Esrs and ARs in Japanese medaka, were selected based on the phylogenetical analyses of Esr and AR with each receptor RGAs (Ogino et al., [2016], [2018]; Tohyama et al., [2015]).
The mEsr1 RGA consisting of agonist and antagonist assays were performed according to the methods previously reported (Katsu et al., [2010]; Lange et al., [2012]; Miyagawa et al., [2014]). Briefly, human embryonic kidney cells 293 (HEK293), precultured, were seeded in 96‐well plates at 15,000 cells/well with 200 μl of culture medium, phenol‐red‐free Dulbecco's Modified Eagle's medium (ThermoFisher Scientific K.K., Tokyo, Japan) supplemented with 2‐mM L‐glutamine and 10% charcoal/dextran‐treated fetal bovine serum (Hyclone, UT, USA), and then incubated for 24 h in 5% CO2 at 37°C. After the 24‐h incubation, 20 μl of test medium containing 40 ng of medaka Esr1/pcDNA3.1, 80 ng of ERE‐TK‐Luc, and 20 ng of pRL‐TK‐Rlu and 1.2 μL of transfection reagent FuGENE HD (Promega, WI, USA) were added into each well. The assay plates were incubated for another 4 h in order to transfect the three vectors into the HEK293 cells. After the vectors were successfully transfected, in agonist assay, 24 μl of concentrated test chemical solution was applied to the test medium in the plate wells. […] After chemical treatment for 40 h, luciferase activity of the cells was measured, and the promoter activity was calculated as firefly (Photinus pyralis)‐/sea pansy (Renilla reniformis)‐luciferase activity in each well. The luciferase activities were quantified by a chemiluminescence assay with Dual‐Luciferase Reporter Assay System (Promega) in accordance with the manufacturer's instructions, and luminescence intensity of firefly and sea pansy luciferin was measured using a luminometer, TriStar LB941 (Berthold Technology, Oak Ridge, TN, USA).
(§2) Effect concentrations, that is, EC50 (a half maximal effective concentration) in the agonist assay and IC50 (a half maximal inhibitory concentration) in the antagonist assay, were estimated by nonlinear curve fitting (e.g., three parameters logistic regression curve) using GraphPad Prism (GraphPad Software Inc., La Jolla, CA, USA).

Japanese medaka [1] = settings: cited from earlier work
medaka ARβ (mARβ) [2] = molecular target: T2, medaka ARβ (mARβ) (Oryzias latipes, UniProt D1MV73); assay: Medaka ARβ reporter gene assay (RGA), antagonist assay with 50 nM 11KT, HepG2 cells; type: cell-based, Japanese medaka (Oryzias latipes); settings: mARβ RGA antagonist assay, 50 nM 11KT-induced activity; ND = no significant response even at the highest assay concentration (in parentheses)
Experimental: as §1
The mARβ RGA in which the agonist and the antagonist assays were performed as same as the mEsr1 RGA was carried out according to the methods previously reported by Lange et al. ([2015]). For the assays, human liver cancer cell line, HepG2, was used as the host cells, and mARβ/pcDNA3.1, MMTV‐Luc, and pRL‐TK‐Rlu were used as mARβ expression vector, reporter vector, and internal control vector, respectively. Other materials and methods, for example, operating procedure, reagents, and incubation conditions, were almost the same as the mEsr1 RGA previously described beside that 11KT (Sigma‐Aldrich, purity 99.0%), a main AR ligand in fish, was competitively spiked at 50 nM into the test medium with test chemicals in antagonist assay. In the agonist and the antagonist assays, 11KT and 2‐hydroxyflutamide (2HFLT; Sigma‐Aldrich, purity 98.5%) were used as positive controls, respectively.
as §2

medaka ARβ (mARβ) [3] = molecular target: T2, medaka ARβ (mARβ); assay: Medaka ARβ reporter gene assay (RGA), agonist assay, HepG2 cells; type: cell-based, Japanese medaka (Oryzias latipes); settings: for EC50: mARβ RGA agonist assay, ND = no significant response even at the highest assay concentration (in parentheses)
Experimental: To support interpretation of the biological effects observed in the FSTRA studies, in vitro RGAs using medaka Esr1 (mEsr1) and medaka ARβ (mARβ) were performed for the 16 test chemicals.
For the assays, human liver cancer cell line, HepG2, was used as the host cells, and mARβ/pcDNA3.1, MMTV‐Luc, and pRL‐TK‐Rlu were used as mARβ expression vector, reporter vector, and internal control vector, respectively.
as §2

[4] = P4 concentration in test solutions with and without UV irradiation (biodegradation check); type: physicochemical
Japanese medaka [5] = settings: cited from earlier work; remark: listed apart in the source
[6] = mEsr1 RGA agonist assay, ND = no significant response even at the highest assay concentration (in parentheses), read-out: Agonist assay, EC50, Medaka Esr1
[7] = F0 generation, FLCT, ref Seki et al. (2003)

T2 sequence (D1MV73 entry or part of it): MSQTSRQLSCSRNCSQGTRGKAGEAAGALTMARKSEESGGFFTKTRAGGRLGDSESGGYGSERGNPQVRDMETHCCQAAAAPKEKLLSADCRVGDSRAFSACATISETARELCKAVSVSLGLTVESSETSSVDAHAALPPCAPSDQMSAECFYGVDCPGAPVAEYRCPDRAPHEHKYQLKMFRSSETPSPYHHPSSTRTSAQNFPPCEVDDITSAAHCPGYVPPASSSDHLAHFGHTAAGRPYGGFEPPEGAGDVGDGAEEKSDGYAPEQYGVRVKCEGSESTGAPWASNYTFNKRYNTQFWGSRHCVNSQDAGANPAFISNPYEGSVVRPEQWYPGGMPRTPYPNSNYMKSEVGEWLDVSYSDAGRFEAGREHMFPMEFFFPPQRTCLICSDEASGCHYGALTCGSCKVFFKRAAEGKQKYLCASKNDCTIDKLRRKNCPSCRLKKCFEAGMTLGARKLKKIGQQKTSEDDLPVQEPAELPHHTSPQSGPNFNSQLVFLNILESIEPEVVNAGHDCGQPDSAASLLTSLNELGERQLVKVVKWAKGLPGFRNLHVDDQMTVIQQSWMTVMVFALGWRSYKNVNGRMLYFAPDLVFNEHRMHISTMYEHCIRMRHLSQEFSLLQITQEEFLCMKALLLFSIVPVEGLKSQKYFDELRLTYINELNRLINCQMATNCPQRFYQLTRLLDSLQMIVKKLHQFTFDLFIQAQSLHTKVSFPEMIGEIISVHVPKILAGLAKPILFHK

Cc1cc(O)ccc1Cl [CMP, 4‐Chloro‐3‐methylphenol]
EC50 (medaka Esr1 (mEsr1); read-out: Agonist assay, EC50, Medaka Esr1, mEsr1 RGA agonist assay, ND = no significant response even at the highest assay concentration (in parentheses)): 61000 nM

C#C[C@]1(O)CC[C@H]2[C@@H]3CCc4cc(O)ccc4[C@H]3CC[C@@]21C [EE2, 17α‐Ethynylestradiol]
EC50 (medaka Esr1 (mEsr1); [6]): 0.88 nM
concentration that significantly elevated male VTG and reduced fertility (Japanese medaka [1]; F0 generation, FLCT, ref MOE, 2006): 9.26 pg/mL
IC50 (medaka ARβ (mARβ) [2]): 140 nM

C#C[C@]1(O)CC[C@H]2[C@@H]3CCC4=CC(=O)CC[C@@H]4[C@H]3CC[C@@]21CC [LNG, Levonorgestrel]
EC50 (medaka Esr1 (mEsr1); [6]): 1100 nM
mARβ agonist activity (in words) (medaka ARβ (mARβ) [3]): potent AR agonists

C[C@]12CCC(=O)C=C1CC[C@@H]1[C@@H]2CC[C@@]2(C)[C@H]1CC[C@]2(C)O [MT, 17α‐methyltestosterone]
concentration causing induction of SSC in females and reduction of reproduction (Japanese medaka [1]; long-term testing, ref Seki et al., 2004): 9.98 pg/mL
EC50 (medaka ARβ (mARβ) [3]): 0.12 nM

CC(=O)[C@H]1CC[C@H]2[C@@H]3CCC4=CC(=O)CC[C@]4(C)[C@H]3CC[C@]12C [P4, Progesterone]
EC50 (medaka Esr1 (mEsr1)): > 10000 nM
mARβ agonist activity (in words) (medaka ARβ (mARβ) [3]): potent AR agonists
P4 concentration, % of the nominal ([4]; test solution after 24-h UV treatment): more than 80 % of the nominal
P4 concentration, % of the nominal ([4]; test solution without UV treatment): less than 20 % of the nominal

CCC(C)(C)c1ccc(O)cc1 [PTH, 4‐tert‐Pentylphenol]
EC50 (medaka Esr1 (mEsr1); [6]): 970 nM
LOEC on VTG induction (Japanese medaka [1]; [7]): ≤ 51.1 µg/L
LOEC on reproductive impairment (Japanese medaka [1]; [7]): 224 µg/L

CCCCCCCCCCCCOS(=O)(=O)[O-].[Na+] [SDS, Sodium dodecyl sulfate]
mEsr1 agonist activity (in words) (medaka Esr1 (mEsr1); highest concentration 100 μM): could not be determined; also recorded: neithEsr agonistic nor antagonistic activity
EC50 (medaka Esr1 (mEsr1); [6]): > 100000 nM
IC50 (medaka ARβ (mARβ) [2]): > 100000 nM
mARβ agonist activity (in words) (medaka ARβ (mARβ) [3]): no significant increase in hold activation; also recorded: neithEsr agonistic nor antagonistic activity
EC50 (medaka ARβ (mARβ) [3]): > 100000 nM

C[C@]12C=CC3=C4CCC(=O)C=C4CC[C@H]3[C@@H]1CC[C@@H]2O [TRB, 17β‐Trenbolone]
concentration causing reduction of reproduction (Japanese medaka [5]; in vivo): 13 pg/mL
concentration causing induction of SSC in females (Japanese medaka [5]; long-term testing, ref Flynn et al., 2017): 32 ng/L
